Measured values: publication PMC6440935, “Characterization and phase I study of CLR457, an orally bioavailable pan-class I PI3-kinase inhibitor” (Investigational New Drugs, 2018)

Molecular target: p110β (Homo sapiens, UniProt P42338)
Experiment: In vitro PI3K biochemical assay, p110β

p110β, sequence (P42338 2-1070 limits assumed): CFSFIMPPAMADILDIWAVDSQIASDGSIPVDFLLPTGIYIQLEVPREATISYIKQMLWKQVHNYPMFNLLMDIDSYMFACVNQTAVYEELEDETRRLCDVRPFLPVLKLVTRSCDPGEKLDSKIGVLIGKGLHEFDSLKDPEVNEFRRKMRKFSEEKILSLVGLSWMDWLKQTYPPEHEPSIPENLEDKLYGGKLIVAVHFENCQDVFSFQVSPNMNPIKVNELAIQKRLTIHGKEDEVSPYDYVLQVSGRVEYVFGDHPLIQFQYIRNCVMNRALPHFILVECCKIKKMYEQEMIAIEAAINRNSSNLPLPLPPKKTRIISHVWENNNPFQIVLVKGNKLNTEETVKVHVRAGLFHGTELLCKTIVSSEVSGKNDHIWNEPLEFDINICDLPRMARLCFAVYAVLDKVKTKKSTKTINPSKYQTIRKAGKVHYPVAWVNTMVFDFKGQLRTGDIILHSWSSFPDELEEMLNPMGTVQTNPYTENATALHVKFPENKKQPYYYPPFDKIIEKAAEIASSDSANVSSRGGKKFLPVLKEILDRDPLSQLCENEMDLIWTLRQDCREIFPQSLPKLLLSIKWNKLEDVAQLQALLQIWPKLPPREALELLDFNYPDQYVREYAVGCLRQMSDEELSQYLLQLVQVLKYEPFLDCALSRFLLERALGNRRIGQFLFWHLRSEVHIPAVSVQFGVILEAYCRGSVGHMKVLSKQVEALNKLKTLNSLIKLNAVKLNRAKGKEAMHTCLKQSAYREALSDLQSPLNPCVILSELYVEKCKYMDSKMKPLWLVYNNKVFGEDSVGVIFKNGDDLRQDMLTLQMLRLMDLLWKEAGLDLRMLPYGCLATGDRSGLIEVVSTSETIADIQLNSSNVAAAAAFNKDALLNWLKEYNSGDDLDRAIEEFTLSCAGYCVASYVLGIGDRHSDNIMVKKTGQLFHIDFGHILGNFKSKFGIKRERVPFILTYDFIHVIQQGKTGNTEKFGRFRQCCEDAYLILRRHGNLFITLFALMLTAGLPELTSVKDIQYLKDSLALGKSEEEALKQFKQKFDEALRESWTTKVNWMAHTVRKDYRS
p110β, sequence (P27986 461-568 partner limits assumed): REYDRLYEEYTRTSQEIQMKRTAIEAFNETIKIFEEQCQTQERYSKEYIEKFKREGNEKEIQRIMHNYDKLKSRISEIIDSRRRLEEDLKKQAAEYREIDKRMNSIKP

C[C@H]1OC(=O)N(c2cc(-c3cnc(N)nc3C(F)(F)F)nc(N3CCOCC3)n2)[C@H]1CO [CLR457]
IC50: 56 ± 35 nM
